# Laboratory results from PMC5291822 (Bioorganic & medicinal chemistry, 2016).
# Biological target: T1, human GVIA iPLA2 (Homo sapiens, UniProt O60733)
# T1 sequence (O60733 1-806): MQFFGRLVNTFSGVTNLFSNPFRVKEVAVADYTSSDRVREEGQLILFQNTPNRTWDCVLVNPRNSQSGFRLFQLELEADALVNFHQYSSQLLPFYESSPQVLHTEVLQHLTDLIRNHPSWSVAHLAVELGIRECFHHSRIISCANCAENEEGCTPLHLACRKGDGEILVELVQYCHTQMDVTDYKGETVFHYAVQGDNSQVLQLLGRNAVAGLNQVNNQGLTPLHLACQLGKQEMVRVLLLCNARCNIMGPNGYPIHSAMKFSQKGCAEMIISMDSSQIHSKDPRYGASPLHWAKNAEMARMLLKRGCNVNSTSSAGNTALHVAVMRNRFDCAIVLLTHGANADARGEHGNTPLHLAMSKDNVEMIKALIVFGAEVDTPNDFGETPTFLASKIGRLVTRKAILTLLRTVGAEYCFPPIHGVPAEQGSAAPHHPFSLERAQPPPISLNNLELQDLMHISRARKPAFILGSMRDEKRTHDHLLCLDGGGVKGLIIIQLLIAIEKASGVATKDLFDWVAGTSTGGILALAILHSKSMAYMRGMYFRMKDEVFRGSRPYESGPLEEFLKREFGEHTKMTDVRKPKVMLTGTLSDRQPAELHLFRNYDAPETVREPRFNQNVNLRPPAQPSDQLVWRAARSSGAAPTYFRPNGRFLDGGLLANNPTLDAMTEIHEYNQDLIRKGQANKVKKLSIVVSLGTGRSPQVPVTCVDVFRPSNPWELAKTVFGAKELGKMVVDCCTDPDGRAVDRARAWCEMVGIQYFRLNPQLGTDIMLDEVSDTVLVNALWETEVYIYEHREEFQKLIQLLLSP
# Assay: mixed micelle modified Dole assay, GVIA iPLA2
# Type: biochemical
# Settings: for XI(50) GVIA iPLA2: mole fraction of inhibitor in total substrate interface giving 50% inhibition
SMILES,inhibitory activity on GVIA iPLA2 (in words),IC50 [µM],XI(50) GVIA iPLA2 [mole fraction],times more potent inhibition of GVIA iPLA2 than of GIVA cPLA2 (selectivity GVIA iPLA2 over GIVA cPLA2)
"CCCC[C@H](NC(=O)C(=O)CCCCc1ccccc1)C(=O)NCC(=O)O [13a, (S)-2-(2-(2-Oxo-6-phenylhexanamido)hexanamido)acetic acid]",totally inactive,,,
"CCCC[C@H](NC(=O)C(=O)CCCCc1ccc2ccccc2c1)C(=O)NCC(=O)O [13b, (S)-2-(2-(6-(Naphthalen-2-yl)-2-oxohexanamido)hexanamido) acetic acid]",totally inactive,,,
"CCCC[C@@H](COCC(=O)O)NC(=O)C(=O)CCCCc1ccc(OC)cc1 [20d, (S)-2-((2-(6-(4-Methoxyphenyl)-2-oxohexanamido)hexyl)oxy)acetic acid]",totally inactive,,,
"CCCC[C@H](NC(=O)C(=O)CCCCc1ccc(OC)cc1)C(=O)NCC(=O)OC(C)(C)C [compound 12c, (S)-tert-Butyl 2-(2-(6-(4-methoxyphenyl)-2-oxohexanamido)hexanamido)acetate]",,6.6,0.012,
"CCCC[C@H](NC(=O)C(=O)CCCCc1ccc(OC)cc1)C(=O)NCCCC(=O)OC(C)(C)C [compound 12e, (S)-tert-Butyl 4-(2-(6-(4-methoxyphenyl)-2-oxohexanamido)hexanamido)butanoate]",,3.8,0.007,around 13 times
"COc1ccc(CCCCC(=O)C(=O)N[C@@H](CC(C)C)C(=O)NCC(=O)OC(C)(C)C)cc1 [compound 22a, (S)-tert-Butyl 2-(2-(6-(4-methoxyphenyl)-2-oxohexanamido)-4-methylpentanamido)acetate]",,13,0.024,
"CCCC[C@H](NC(=O)C(=O)CCCCc1ccc(OC)cc1)C(=O)NCC(=O)OCc1ccccc1 [compound 31a, (S)-Benzyl 2-(2-(6-(4-methoxyphenyl)-2-oxohexanamido)hexanamido)acetate]",,14,0.026,
